Assay results reported in patent US20100248365A1, “GANGLIOSIDE BIOSYNTHESIS MODULATORS” (ZACHARON PHARMACEUTICALS, INC., priority 2009, published 2010).

Target: T1, ST3Gal 1 (rat recombinant a 2,3-Sialytransferase) (Rattus norvegicus, UniProt Q6H8N0)
T1 sequence (Q6H8N0 1-340): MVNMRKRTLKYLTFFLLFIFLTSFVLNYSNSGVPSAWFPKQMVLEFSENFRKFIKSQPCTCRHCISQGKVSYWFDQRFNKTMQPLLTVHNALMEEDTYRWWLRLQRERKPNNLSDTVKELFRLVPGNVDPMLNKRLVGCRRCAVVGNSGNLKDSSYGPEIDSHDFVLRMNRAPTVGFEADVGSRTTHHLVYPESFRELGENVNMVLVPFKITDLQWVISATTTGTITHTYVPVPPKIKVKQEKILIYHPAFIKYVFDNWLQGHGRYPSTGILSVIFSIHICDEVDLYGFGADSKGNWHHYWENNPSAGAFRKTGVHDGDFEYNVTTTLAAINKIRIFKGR
Experiment: ST3Gal 1 assay with 2AA-labeled GSL standards, HPLC readout
Assay type: biochemical
Settings: b350 ties FIG. 5/6 (compound 1) to the ST3Gal 1 assay
Method: The enzyme ST3Gal 1 (rat recombinant a 2,3-Sialytransferase) assay was carried out with 2AA-labeled GSL standards as substrate. The complete incubation mixture contained the following components in a final volume of 20 ul: 50 mM cacodylate buffer, pH6.2, 10 mM MgCl2, 0.2% TX100, 2 mM CMP-sialic acid (CMP-SA), 100 ng 2AA-GM1/GD1b, 10 μU of ST3Gal1 enzyme. The reaction was carried out @37° C. for 30 min. Control reactions were done without CMP-SA. The reaction was analyzed by HPLC as described above. The % of product conversion was assessed by comparison to control samples. The enzyme titration curve was determined from 10, 3, 1, 0.3 and 0.1 μU of enzyme. The time course was determined using 10 μU of the enzyme, @ 0, 5, 10, 15, 30, 45, 60, 90, and 120 min. […] FIG. 5 illustrates the activity of late stage selective ganglioside inhibitors.

inhibition of ST3Gal 1 enzyme activity (FIG. 5): inhibition
SMILES: Cc1nn(-c2ccccc2)c(C)c1C=NN1CCN(Cc2ccccc2Cl)CC1 [compound 1, 4-(2-chlorobenzyl)-N-((3,5-dimethyl-1-phenyl-1H-pyrazol-4-yl)methylene)piperazin-1-amine]
